# “And” between values parts separate entries of the source, which are not always exact repeats. Equal entries are not always repeated. Where two headings read alike, the source gives them in different places.
# How the values were obtained:
# sigma-2 receptor = molecular target: T1, sigma-2 receptor (Homo sapiens, UniProt Q5BJF2); assay: In vitro live cellular binding studies in MDA-MB-231 breast cancer cells; conditions: MDA-MB-231 cells
# T1 construct: was evaluated in MDA-MB-231 breast cancer cells (ATCC-HTB-26) known to have high sigma-2 receptor density; host or cells: MDA-MB-231 (living, plated cells)
# Description: MDA-MB-231 were cultured in Minimum Essential Media (MEM) with added nutrients, 10% fetal bovine serum (FBS) and 1% penicillin/streptomycin at 5% CO2 and 37° C. Twenty-four hours before assay cells were plated at 50,000 cell/well in 96-well format. Two solutions of freshly synthesized radioligand were diluted to a concentration of approximately 2,000 cpm/μL in phosphate buffered saline with calcium and magnesium (PBS w/ Ca^2+ and Mg^2+), with and without non-radioactive 100 μM of the standard to determine non-specific binding. […] Total volume of treatment in each well was 50 μL. PBS w/ Ca^2+ and Mg^2+ without substrate was added to the last row of wells and was used for protein quantification at the end of the experiment. Treatment was removed at time points over the course of 2 h (n=4/time point). At each time of treatment removal, wells were washed with PBS×3. At the end of the experiment wells were counted on an automatic gamma counter using a custom protocol with an energy window of 70-110 KeV (Wizard™ 2470, Perkin Elmer, Waltham Mass.). Protein quantification was performed using a modified Lowry method. Independent experiments were repeated in triplicate. One-phase association kinetics were modeled using Prism™ software version 6.0 (La Holla, Calif.).
# [1] = Description: Tumors were grown by subcutaneously injecting 1×10^6 EMT-6 mouse breast cancer cells (ATCC #CRL-2755) into the flanks of female BALB/c mice (Taconic). Tumors were an appropriate size of approximately 200 mm^3 after 14 days of growth. On the day of experiment 10 μCi of newly synthesized ^211At—N-(6,7-dimethoxy-3,4-dihydroisoquinolin-2(1H)-yl)butyl)-2,3-dimethoxybenzamide in saline (ethanol<5%) was administered intravenously to mice under isoflurane anesthesia. Mice were sacrificed by cervical dislocation followed by immediate cardiac puncture post administration at time points of 5 min, 1, 2, 4, 8, and 24 h (n=4 mice/time point). Tissue harvested included; blood, heart, muscle, lung, kidney, pancreas, spleen, liver, skin, brain, thyroid, stomach and EMT-6 tumor. Tissues were weighed and counted on an automatic gamma counter as previously described. All animal experiments were conducted under IACUC-approved protocols compliant with University of Pennsylvania guidelines for the care and use of research animals.
# [2] = in vivo; cited from earlier work
# T1 sequence (Q5BJF2 whole entry): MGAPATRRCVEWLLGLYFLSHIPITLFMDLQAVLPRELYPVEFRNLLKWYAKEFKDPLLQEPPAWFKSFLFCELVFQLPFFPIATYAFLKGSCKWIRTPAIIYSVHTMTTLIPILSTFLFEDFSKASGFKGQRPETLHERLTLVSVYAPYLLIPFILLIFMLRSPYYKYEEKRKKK
structure (smiles),measurement,setting,value
"COc1cc2c(cc1OC)CN(CCCCNC(=O)c1cc([211At])cc(OC)c1OC)CC2 [^211At—N-(6,7-dimethoxy-3,4-dihydroisoquinolin-2(1H)-yl)butyl)-2,3-dimethoxybenzamide]",reduction in total binding through the addition of the standard,sigma-2 receptor; +100 μM non-radioactive standard,80%
same,time of 50% maximal binding (T1/2),sigma-2 receptor; one-phase association,12.51 min
same,"Decay corrected biodistribution, Blood",[1]; 5 min after i.v.,4.06 ± 0.19 % ID/g
same,"Decay corrected biodistribution, Blood",[1]; 1 h after i.v.,2.12 ± 0.15 % ID/g
same,"Decay corrected biodistribution, Blood",[1]; 2 h after i.v.,2.43 ± 0.82 % ID/g
same,"Decay corrected biodistribution, Blood",[1]; 4 h after i.v.,1.64 ± 0.11 % ID/g
same,"Decay corrected biodistribution, Blood",[1]; 8 h after i.v.,1.82 ± 0.10 % ID/g
same,"Decay corrected biodistribution, Blood",[1]; 24 h after i.v.,0.44 ± 0.10 % ID/g
same,"Decay corrected biodistribution, Brain",[1]; 5 min after i.v.,1.95 ± 0.14 % ID/g
same,"Decay corrected biodistribution, Brain",[1]; 1 h after i.v.,0.46 ± 0.08 % ID/g
same,"Decay corrected biodistribution, Brain",[1]; 2 h after i.v.,0.39 ± 0.01 % ID/g
same,"Decay corrected biodistribution, Brain",[1]; 4 h after i.v.,0.21 ± 0.02 % ID/g
same,"Decay corrected biodistribution, Brain",[1]; 8 h after i.v.,0.25 ± 0.02 % ID/g
same,"Decay corrected biodistribution, Brain",[1]; 24 h after i.v.,0.07 ± 0.02 % ID/g
same,"retention of radioactivity in the tumor, time post administration",[1]; EMT-6 tumor,1 to 8 h
same,"Decay corrected biodistribution, Tumor","[1]; EMT-6 tumor, 5 min after i.v.",0.74 ± 0.07 % ID/g
same,"Decay corrected biodistribution, Tumor","[1]; EMT-6 tumor, 1 h after i.v.",4.40 ± 0.15 % ID/g
same,"Decay corrected biodistribution, Tumor","[1]; EMT-6 tumor, 2 h after i.v.",4.93 ± 0.78 % ID/g
same,"Decay corrected biodistribution, Tumor","[1]; EMT-6 tumor, 4 h after i.v.",5.05 ± 0.68 % ID/g
same,"Decay corrected biodistribution, Tumor","[1]; EMT-6 tumor, 8 h after i.v.",5.11 ± 0.09 % ID/g
same,"Decay corrected biodistribution, Tumor","[1]; EMT-6 tumor, 24 h after i.v.",1.34 ± 0.37 % ID/g
same,Tumor accumulation,"[1]; EMT-6 tumor, from 1 h to at least 8 h",above 4 % ID/g
same,"Decay corrected biodistribution, Heart",[1]; 5 min after i.v.,10.2 ± 0.82 % ID/g
same,"Decay corrected biodistribution, Heart",[1]; 1 h after i.v.,5.16 ± 1.21 % ID/g
same,"Decay corrected biodistribution, Heart",[1]; 2 h after i.v.,4.70 ± 0.31 % ID/g
same,"Decay corrected biodistribution, Heart",[1]; 4 h after i.v.,3.54 ± 0.17 % ID/g
same,"Decay corrected biodistribution, Heart",[1]; 8 h after i.v.,4.01 ± 0.29 % ID/g
same,"Decay corrected biodistribution, Heart",[1]; 24 h after i.v.,1.14 ± 0.27 % ID/g
same,"Decay corrected biodistribution, Kidney",[1]; 5 min after i.v.,47.7 % ID/g and 47.7 ± 2.32 % ID/g
same,"Decay corrected biodistribution, Kidney",[1]; 1 h after i.v.,5.83 % ID/g and 5.83 ± 0.53 % ID/g
same,"Decay corrected biodistribution, Kidney",[1]; 2 h after i.v.,5.59 ± 0.35 % ID/g
same,"Decay corrected biodistribution, Kidney",[1]; 4 h after i.v.,2.97 ± 0.13 % ID/g
same,"Decay corrected biodistribution, Kidney",[1]; 8 h after i.v.,3.24 ± 0.21 % ID/g
same,"Decay corrected biodistribution, Kidney",[1]; 24 h after i.v.,1.05 ± 0.23 % ID/g
same,"Decay corrected biodistribution, Liver",[1]; 5 min after i.v.,18.1 ± 2.11 % ID/g
same,"Decay corrected biodistribution, Liver",[1]; 1 h after i.v.,6.39 ± 3.27 % ID/g
same,"Decay corrected biodistribution, Liver",[1]; 2 h after i.v.,4.63 ± 1.01 % ID/g
same,"Decay corrected biodistribution, Liver",[1]; 4 h after i.v.,1.87 ± 0.17 % ID/g
same,"Decay corrected biodistribution, Liver",[1]; 8 h after i.v.,1.86 ± 0.19 % ID/g
same,"Decay corrected biodistribution, Liver",[1]; 24 h after i.v.,0.59 ± 0.20 % ID/g
same,"Decay corrected biodistribution, Lung",[1]; 5 min after i.v.,20.2 ± 1.39 % ID/g
same,"Decay corrected biodistribution, Lung",[1]; 1 h after i.v.,7.14 ± 1.03 % ID/g
same,"Decay corrected biodistribution, Lung",[1]; 2 h after i.v.,6.42 ± 0.39 % ID/g
same,"Decay corrected biodistribution, Lung",[1]; 4 h after i.v.,5.74 ± 0.53 % ID/g
same,"Decay corrected biodistribution, Lung",[1]; 8 h after i.v.,6.23 ± 0.57 % ID/g
same,"Decay corrected biodistribution, Lung",[1]; 24 h after i.v.,2.21 ± 0.40 % ID/g
same,"Decay corrected biodistribution, Muscle",[1]; 5 min after i.v.,0.69 ± 0.16 % ID/g
same,"Decay corrected biodistribution, Muscle",[1]; 1 h after i.v.,1.24 ± 0.18 % ID/g
same,"Decay corrected biodistribution, Muscle",[1]; 2 h after i.v.,1.15 ± 0.07 % ID/g
same,"Decay corrected biodistribution, Muscle",[1]; 4 h after i.v.,0.56 ± 0.03 % ID/g
same,"Decay corrected biodistribution, Muscle",[1]; 8 h after i.v.,0.61 ± 0.04 % ID/g
same,"Decay corrected biodistribution, Muscle",[1]; 24 h after i.v.,0.19 ± 0.01 % ID/g
same,"Decay corrected biodistribution, Pancreas",[1]; 5 min after i.v.,8.81 ± 1.21 % ID/g
same,"Decay corrected biodistribution, Pancreas",[1]; 1 h after i.v.,18.1 ± 1.60 % ID/g
same,"Decay corrected biodistribution, Pancreas",[1]; 2 h after i.v.,18.0 ± 1.65 % ID/g
same,"Decay corrected biodistribution, Pancreas",[1]; 4 h after i.v.,26.3 ± 2.11 % ID/g
same,"Decay corrected biodistribution, Pancreas",[1]; 8 h after i.v.,21.1 ± 2.35 % ID/g
same,"Decay corrected biodistribution, Pancreas",[1]; 24 h after i.v.,5.78 ± 0.89 % ID/g
same,"Decay corrected biodistribution, Skin",[1]; 5 min after i.v.,0.58 ± 0.05 % ID/g
same,"Decay corrected biodistribution, Skin",[1]; 1 h after i.v.,2.30 ± 0.23 % ID/g
same,"Decay corrected biodistribution, Skin",[1]; 2 h after i.v.,2.66 ± 0.30 % ID/g
same,"Decay corrected biodistribution, Skin",[1]; 4 h after i.v.,1.79 ± 0.15 % ID/g
same,"Decay corrected biodistribution, Skin",[1]; 8 h after i.v.,2.10 ± 0.42 % ID/g
same,"Decay corrected biodistribution, Skin",[1]; 24 h after i.v.,0.85 ± 0.08 % ID/g
same,"Decay corrected biodistribution, Spleen",[1]; 5 min after i.v.,8.41 ± 2.67 % ID/g
same,"Decay corrected biodistribution, Spleen",[1]; 1 h after i.v.,13.2 ± 2.76 % ID/g
same,"Decay corrected biodistribution, Spleen",[1]; 2 h after i.v.,12.0 ± 1.47 % ID/g
same,"Decay corrected biodistribution, Spleen",[1]; 4 h after i.v.,7.59 ± 0.49 % ID/g
same,"Decay corrected biodistribution, Spleen",[1]; 8 h after i.v.,7.49 ± 1.38 % ID/g
same,"Decay corrected biodistribution, Spleen",[1]; 24 h after i.v.,2.14 ± 1.02 % ID/g
same,"Decay corrected biodistribution, Stomach",[1]; 5 min after i.v.,5.87 ± 1.12 % ID/g
same,"Decay corrected biodistribution, Stomach",[1]; 1 h after i.v.,15.9 ± 2.53 % ID/g
same,"Decay corrected biodistribution, Stomach",[1]; 2 h after i.v.,16.3 ± 2.29 % ID/g
same,"Decay corrected biodistribution, Stomach",[1]; 4 h after i.v.,19.7 ± 1.79 % ID/g
same,"Decay corrected biodistribution, Stomach",[1]; 8 h after i.v.,28.2 ± 7.21 % ID/g
same,"Decay corrected biodistribution, Stomach",[1]; 24 h after i.v.,9.88 ± 1.62 % ID/g
same,"Decay corrected biodistribution, Thyroid",[1]; 5 min after i.v.,5.87 ± 0.85 % ID/g
same,"Decay corrected biodistribution, Thyroid",[1]; 1 h after i.v.,11.6 ± 1.01 % ID/g
same,"Decay corrected biodistribution, Thyroid",[1]; 2 h after i.v.,18.3 ± 6.12 % ID/g
same,"Decay corrected biodistribution, Thyroid",[1]; 4 h after i.v.,14.0 ± 4.26 % ID/g
same,"Decay corrected biodistribution, Thyroid",[1]; 8 h after i.v.,13.3 ± 2.96 % ID/g
same,"Decay corrected biodistribution, Thyroid",[1]; 24 h after i.v.,4.87 ± 1.15 % ID/g
same,maximal tumor to muscle ratio,[1]; at 4 h,9.02
"COc1cc2c(cc1OC)CN(CCCCNC(=O)c1cc(I)cc(OC)c1OC)CC2 [iodinated sigma-2 ligand standard, 5-iodo-N-(4-(6,7-dimethoxy-3,4-dihydroisoquinolin-2(1H)-yl)butyl)-2,3-dimethoxybenzamide]",tumor uptake,[2],2 % ID/g

# Reference: patent US10457642B2, “211-astatine containing radiotherapeutics for the treatment of cancer” (The Trustees of The University of Pennsylvania, priority 2015, dated 2019)
